Tests used:
Wnt signalling pathway = experiment: Wnt-sensitive reporter gene assay (6xTCF-luciferase, pTOP-FLASH) in Hek293T cells; format: cell-based; design: Normalized Wnt pathway (inhibitory) activity: scale not given here; settings: for IC50: Homo sapiens, HEK-293T, Hek293T, 24 h incubation, 5 nM-100 microM, read-out: IC50 of the Wnt signalling pathway inhibiting activity
Procedure: To screen for small-molecule modulators of the Wnt signalling pathway, a reporter gene based assay describing the modulation of the TCF4 transcription factor was used. More specifically 4000 Hek293T cells were seeded into 384 high density plates. 24 h after seeding a Wnt-sensitive reporter (6×TCF-luciferase (Firefly) (pTOP-FLASH; “Armadillo co activates transcription driven by the product of the drosophila segment polarity gene dTCF”, Cell, 1997, 88(6), pages 789-799) and constitutively expressed control reporter (Renilla luciferase pCMV-RL) were transfected into Hek293T. Wnt signaling was stimulated by cotransfecting mouse Wnt1, mouse Frizzled 8 and human LRP6 according to “Casein kinase 1 gamma couples Wnt receptor activation to cytoplasmic signal transduction”, Nature, 2005, 438 (7069), pages 867-872. 24 h after pathway stimulation compounds were added at a concentration of 10 microM and allowed to incubate for 24 h. For the evaluation of the IC50 the compound was applied in increasing concentrations yielding final concentrations per well of 5 nM-100 microM.

HepG2 = experiment: Cytotoxicity in HepG2, CellTiterGlo; format: cell-based; settings: 24 h
Procedure: For examination of cytotoxicity in these cancer cell lines the commercial available CellTiterGlo® Reagent (Promega, USA) was used according to the manufactor. Compounds were applied to Hek293T (denoted (1)) or HepG2 (denoted (2)), cultured in Dulbecco's Modified Eagles Medium, supplemented with 10% fetal calf serum and 1% penicillin/streptomycin. Cells were grown in T75 flasks at 37° C., 5% CO2 and trypsinized when 60-80% confluent by adding 2 ml of 0.25% Trypsin-EDTA solution. Cells were then re-suspended into culture medium yielding approx. 4000 cells (1) or 4500 cells (2), suspended in 30 microl medium. 48 h after cell seeding, compounds were added to yield the desired final concentrations. 24 h after compound addition cytotoxicity was evaluated. For this purpose the media was removed and CellTiterGlo® was added according to the manufactors manual. In this assay the luciferase emission readout is directly correlated with the cellular amount of ATP, low luciferase emission thus is reflecting cytotoxicity of a compound. For the evaluation of the IC50 the compound was applied in increasing concentrations yielding final concentrations per well of 5 nM-100 microM.

| Structure (SMILES) | Normalized Wnt pathway (inhibitory) activity (Wnt signalling pathway; 0.005 microM) | Normalized Wnt pathway (inhibitory) activity (Wnt signalling pathway; 0.015 microM) | Normalized Wnt pathway (inhibitory) activity (Wnt signalling pathway; 0.137 microM) | Normalized Wnt pathway (inhibitory) activity (Wnt signalling pathway; 0.412 microM) | Normalized Wnt pathway (inhibitory) activity (Wnt signalling pathway; 1.235 microM) | Normalized Wnt pathway (inhibitory) activity (Wnt signalling pathway; 3.704 microM) | Normalized Wnt pathway (inhibitory) activity (Wnt signalling pathway; 11.111 microM) | Normalized Wnt pathway (inhibitory) activity (Wnt signalling pathway; 33.333 microM) | Normalized Wnt pathway (inhibitory) activity (Wnt signalling pathway; 100.000 microM) | IC50 (Wnt signalling pathway) | Normalized toxicity values (HepG2) (HepG2; 0.005 microM) | Normalized toxicity values (HepG2) (HepG2; 0.015 microM) | Normalized toxicity values (HepG2) (HepG2; 0.046 microM) | Normalized toxicity values (HepG2) (HepG2; 0.137 microM) | Normalized toxicity values (HepG2) (HepG2; 0.412 microM) | Normalized toxicity values (HepG2) (HepG2; 1.235 microM) | Normalized toxicity values (HepG2) (HepG2; 3.704 microM) | Normalized toxicity values (HepG2) (HepG2; 11.111 microM) | Normalized toxicity values (HepG2) (HepG2; 33.333 microM) | Normalized toxicity values (HepG2) (HepG2; 100.000 microM) | other results |
| --- | --- | --- | --- | --- | --- | --- | --- | --- | --- | --- | --- | --- | --- | --- | --- | --- | --- | --- | --- | --- | --- |
| CCOC(=O)C1=C(C)Nc2c(c3nnc(-c4cccc(OC)c4)n3c(=O)n2-c2ccccc2)C1c1ccccc1 (centres unmarked) [Example 15, 3-(3-Methoxy-phenyl)-7-methyl-4-oxo-5,9-diphenyl-4,5,6,9-tetrahydro-1,2,3a,5,6-pentaaza-cyclopenta[a]naphthalene-8-carboxylic acid ethyl ester] | 0.9417 | 0.9230 | 1.0963 | 0.9830 | 0.8830 | 0.2973 | 0.2350 | 0.4200 | 0.4505 | 1340 nM | 1.0700 | 1.0465 | 1.1350 | 0.9913 | 1.0390 | 0.9878 | 1.1575 | 1.1825 | 1.2000 | 1.5075 |  |
| CCOC(=O)C1=C(c2ccccc2)c2c(n(-c3ccccc3)c(=O)n3c(-c4cccc(OC)c4)nnc23)NC1C (centres unmarked) [Example 16, 3-(3-Methoxy-phenyl)-7-methyl-4-oxo-5,9-diphenyl-4,5,6,7-tetrahydro-1,2,3a,5,6-pentaaza-cyclopenta[a]naphthalene-8-carboxylic acid ethyl ester] | 0.9907 | 1.2275 | 1.0070 | 1.0435 | 0.9565 | 0.5445 | 0.3755 | 0.3063 | 0.1990 | 2940 nM | 1.0275 | 0.9130 | 0.9210 | 0.9210 | 0.9183 | 0.9173 | 1.0303 | 1.1325 | 1.2425 | 1.1200 | Normalized Wnt pathway (inhibitory) activity (Wnt signalling pathway; 0.046 microM): 1.0533 |
| CCOC(=O)C1=C(c2ccccc2)c2c(n(-c3ccccc3)c(=O)n3c(-c4ccc(OC)cc4)nnc23)NC1C (centres unmarked) [Example 18] | 0.8680 | 1.1175 | 1.0825 | 1.1223 | 0.7260 | 0.8798 | 0.6365 | 0.4930 | 0.2505 | 22100 nM | 1.1400 | 1.0110 | 1.0350 | 0.9173 | 0.9185 | 0.9953 | 0.9855 | 1.0800 | 1.1125 | 1.1375 | Normalized Wnt pathway (inhibitory) activity (Wnt signalling pathway; 0.046 microM): 1.0168 |
